Measurements from patent publication US10501461B2, “Tyrosine amide derivatives as Rho-kinase inhibitors” (CHIESI FARMACEUTICI S.P.A., priority 2017, dated 2019).

Experiments:
Rho kinase 2 (ROCK-II) = Rho kinase 2 (ROCK-II) (Homo sapiens, UniProt O75116); assay: In vitro Rho kinase inhibitory activity assay (ADP-Glo), Rho kinase 2; assay type: biochemical; conditions: 10 μM ATP, 25° C., expressed as range of activity
How it was run: (§1)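 Human ROCK1 or ROCK2 was preincubated with compound for 30 min at 25 °C in 40 mM Tris pH7.5, 20 mM MgCl2, 0.1 mg/ml BSA, 50 μM DTT, 2.5 μM Myelin Basic Protein, 1% DMSO final. Reactions ran 1 hour with 10 μM ATP final; ADP-Glo luminescence gave IC50 by sigmoidal fit, Ki by Cheng-Prusoff.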

Rho kinase 1 (ROCK-I) = Rho kinase 1 (ROCK-I) (Homo sapiens, UniProt Q13464); assay: In vitro Rho kinase inhibitory activity assay (ADP-Glo), Rho kinase 1; assay type: biochemical; conditions: 10 μM ATP, 25° C., expressed as range of activity
Chain of Rho kinase 1 (ROCK-I) (Q13464 whole entry): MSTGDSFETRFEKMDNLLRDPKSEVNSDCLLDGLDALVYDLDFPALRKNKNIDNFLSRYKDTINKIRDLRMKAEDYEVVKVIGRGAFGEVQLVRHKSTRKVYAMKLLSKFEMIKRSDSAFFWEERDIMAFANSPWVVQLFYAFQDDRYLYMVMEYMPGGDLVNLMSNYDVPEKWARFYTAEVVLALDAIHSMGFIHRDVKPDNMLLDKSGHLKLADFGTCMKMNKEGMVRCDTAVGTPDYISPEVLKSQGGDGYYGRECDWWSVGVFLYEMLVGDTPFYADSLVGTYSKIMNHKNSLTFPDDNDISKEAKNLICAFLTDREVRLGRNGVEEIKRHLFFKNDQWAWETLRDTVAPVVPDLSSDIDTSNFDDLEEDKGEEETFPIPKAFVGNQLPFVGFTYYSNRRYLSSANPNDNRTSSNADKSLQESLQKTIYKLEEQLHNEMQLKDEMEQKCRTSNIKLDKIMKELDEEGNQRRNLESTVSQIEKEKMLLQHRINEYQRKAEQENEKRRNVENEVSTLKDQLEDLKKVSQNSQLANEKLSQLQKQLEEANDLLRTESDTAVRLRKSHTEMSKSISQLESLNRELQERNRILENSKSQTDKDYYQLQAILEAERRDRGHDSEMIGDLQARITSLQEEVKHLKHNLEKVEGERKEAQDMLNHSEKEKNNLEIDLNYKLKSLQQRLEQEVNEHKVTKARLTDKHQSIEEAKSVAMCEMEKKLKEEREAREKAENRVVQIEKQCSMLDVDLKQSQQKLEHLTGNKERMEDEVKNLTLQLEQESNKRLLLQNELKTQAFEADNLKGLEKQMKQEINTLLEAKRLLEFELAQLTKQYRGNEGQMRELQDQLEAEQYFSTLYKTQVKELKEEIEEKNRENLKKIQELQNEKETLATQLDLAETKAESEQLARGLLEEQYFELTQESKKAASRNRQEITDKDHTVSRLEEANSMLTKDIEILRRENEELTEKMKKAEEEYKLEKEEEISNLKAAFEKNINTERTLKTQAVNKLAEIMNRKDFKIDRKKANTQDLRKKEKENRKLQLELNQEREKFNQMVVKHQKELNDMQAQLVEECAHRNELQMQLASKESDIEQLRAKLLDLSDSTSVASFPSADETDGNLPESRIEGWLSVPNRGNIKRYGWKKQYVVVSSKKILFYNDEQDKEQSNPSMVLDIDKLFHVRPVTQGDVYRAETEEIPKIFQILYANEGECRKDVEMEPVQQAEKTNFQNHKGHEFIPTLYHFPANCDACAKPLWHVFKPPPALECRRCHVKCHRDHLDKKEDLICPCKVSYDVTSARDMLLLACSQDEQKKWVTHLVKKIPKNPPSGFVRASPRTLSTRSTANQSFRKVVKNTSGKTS
How it was run: as §1

Chain of Rho kinase 2 (ROCK-II) (O75116 whole entry): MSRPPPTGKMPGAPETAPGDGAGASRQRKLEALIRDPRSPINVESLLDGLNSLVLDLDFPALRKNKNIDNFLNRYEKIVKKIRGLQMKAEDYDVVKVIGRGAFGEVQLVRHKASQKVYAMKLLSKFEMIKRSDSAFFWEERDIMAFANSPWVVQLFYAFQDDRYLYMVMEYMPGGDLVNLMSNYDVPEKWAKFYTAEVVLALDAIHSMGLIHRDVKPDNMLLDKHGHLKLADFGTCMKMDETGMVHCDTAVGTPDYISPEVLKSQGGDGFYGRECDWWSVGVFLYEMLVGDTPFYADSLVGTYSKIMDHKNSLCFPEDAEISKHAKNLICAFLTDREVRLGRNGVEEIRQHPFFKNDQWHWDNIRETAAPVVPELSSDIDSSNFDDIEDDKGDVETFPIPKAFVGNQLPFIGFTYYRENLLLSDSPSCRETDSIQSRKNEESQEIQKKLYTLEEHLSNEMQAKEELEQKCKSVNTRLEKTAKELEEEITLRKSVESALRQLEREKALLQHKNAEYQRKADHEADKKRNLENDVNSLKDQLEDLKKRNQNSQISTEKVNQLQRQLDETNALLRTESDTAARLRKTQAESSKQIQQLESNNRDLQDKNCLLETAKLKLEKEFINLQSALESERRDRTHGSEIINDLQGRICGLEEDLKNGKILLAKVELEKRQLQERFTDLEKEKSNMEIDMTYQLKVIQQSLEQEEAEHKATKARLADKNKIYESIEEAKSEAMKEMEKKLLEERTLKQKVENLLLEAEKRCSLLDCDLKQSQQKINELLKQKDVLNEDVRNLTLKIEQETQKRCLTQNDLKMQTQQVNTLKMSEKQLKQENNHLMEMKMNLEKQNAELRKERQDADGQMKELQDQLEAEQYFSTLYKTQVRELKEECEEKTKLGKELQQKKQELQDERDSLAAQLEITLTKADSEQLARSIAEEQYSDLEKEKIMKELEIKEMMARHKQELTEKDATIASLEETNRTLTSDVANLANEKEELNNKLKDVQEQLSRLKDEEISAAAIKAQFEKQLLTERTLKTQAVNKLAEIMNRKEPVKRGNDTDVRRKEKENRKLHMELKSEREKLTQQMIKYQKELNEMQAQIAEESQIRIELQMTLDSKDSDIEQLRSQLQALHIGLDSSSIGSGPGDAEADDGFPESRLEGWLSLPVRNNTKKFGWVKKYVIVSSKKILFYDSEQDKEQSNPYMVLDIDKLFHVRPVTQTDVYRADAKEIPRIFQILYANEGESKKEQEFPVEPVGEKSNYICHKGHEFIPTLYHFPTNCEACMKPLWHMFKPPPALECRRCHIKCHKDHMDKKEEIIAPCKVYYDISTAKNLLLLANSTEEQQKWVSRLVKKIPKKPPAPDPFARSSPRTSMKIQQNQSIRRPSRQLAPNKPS

`COc1ccc(CN2CCN(C(=O)C(N)Cc3ccc(Oc4ccnc5[nH]cc(C)c45)c(F)c3)CC2)cc1` (centres unmarked) [Example 75, 2-amino-3-(3-fluoro-4-((3-methyl-1H-pyrrolo[2,3-b]pyridin-4-yl)oxy)phenyl)-1-(4-(4-methoxybenzyl)piperazin-1-yl)propan-1-one] showed a Ki (Rho kinase 2 (ROCK-II)) of less than 3 nM and a Ki (Rho kinase 1 (ROCK-I)) of less than 3 nM.
Work on `Cc1c[nH]c2nccc(Oc3ccc(C[C@H](N)C(=O)N4CCC[C@@H](N(C)C)C4)cc3F)c12` [Example 50, (S)-2-amino-1-((R)-3-(dimethylamino)piperidin-1-yl)-3-(3-fluoro-4-((3-methyl-1H-pyrrolo[2,3-b]pyridin-4-yl)oxy)phenyl)propan-1-one] yielded a Ki (Rho kinase 2 (ROCK-II)) of less than 3 nM and a Ki (Rho kinase 1 (ROCK-I)) of less than 3 nM.
`Cc1c[nH]c2nccc(Oc3ccc(C[C@H](N)C(=O)N4CCN(C(=O)c5cnn(C)c5)CC4)cc3F)c12` [Example 175, (S)-2-amino-3-(3-fluoro-4-((3-methyl-1H-pyrrolo[2,3-b]pyridin-4-yl)oxy)phenyl)-1-(4-(1-methyl-1H-pyrazole-4-carbonyl)piperazin-1-yl)propan-1-one] showed a Ki (Rho kinase 2 (ROCK-II)) of less than 3 nM and a Ki (Rho kinase 1 (ROCK-I)) of less than 3 nM.
With `O=C(NC(Cc1ccc(Oc2ccnc3[nH]ccc23)cc1)C(=O)NC1CCCCC1)C1CCNC1` (centres unmarked) [Example 180, N-(3-(4-((1H-pyrrolo[2,3-b]pyridin-4-yl)oxy)phenyl)-1-(cyclohexylamino)-1-oxopropan-2-yl)pyrrolidine-3-carboxamide] the Ki (Rho kinase 2 (ROCK-II)) was 3 to 30 nM and the Ki (Rho kinase 1 (ROCK-I)) was 3 to 30 nM.
For `Cc1nc(CN2CCN(C(=O)[C@@H](N)Cc3ccc(Oc4ccnc5[nH]cc(C)c45)c(F)c3)CC2)cs1` [Example 157, (S)-2-amino-3-(3-fluoro-4-((3-methyl-1H-pyrrolo[2,3-b]pyridin-4-yl)oxy)phenyl)-1-(4-((2-methylthiazol-4-yl)methyl)piperazin-1-yl)propan-1-one], the Ki (Rho kinase 2 (ROCK-II)) was less than 3 nM and the Ki (Rho kinase 1 (ROCK-I)) was less than 3 nM.
With `Cc1c[nH]c2ncnc(Oc3ccc(C[C@H](N)C(=O)N4CCN(Cc5ccccn5)CC4)cc3F)c12` [Example 120, (S)-2-amino-3-(3-fluoro-4-((5-methyl-7H-pyrrolo[2,3-d]pyrimidin-4-yl)oxy)phenyl)-1-(4-(pyridin-2-ylmethyl)piperazin-1-yl)propan-1-one] the Ki (Rho kinase 2 (ROCK-II)) was less than 3 nM and the Ki (Rho kinase 1 (ROCK-I)) was 3 to 30 nM.
`Cc1c[nH]c2nccc(Oc3ccc(C[C@H](N)C(=O)NC4(C(N)=O)CCCCC4)cc3F)c12` [Example 35, (S)-1-(2-amino-3-(3-fluoro-4-((3-methyl-1H-pyrrolo[2,3-b]pyridin-4-yl)oxy)phenyl)propanamido)cyclohexanecarboxamide] gave a Ki (Rho kinase 2 (ROCK-II)) of less than 3 nM and a Ki (Rho kinase 1 (ROCK-I)) of less than 3 nM.
`CNC(=O)c1ccc(CN2CCN(C(=O)[C@@H](N)Cc3ccc(Oc4ccnc5[nH]cc(C)c45)c(F)c3)CC2)o1` [Example 166, (S)-5-((4-(2-amino-3-(3-fluoro-4-((3-methyl-1H-pyrrolo[2,3-b]pyridin-4-yl)oxy)phenyl)propanoyl)piperazin-1-yl)methyl)-N-methylfuran-2-carboxamide] showed a Ki (Rho kinase 2 (ROCK-II)) of less than 3 nM and a Ki (Rho kinase 1 (ROCK-I)) of less than 3 nM.
For `Cc1c[nH]c2ncnc(Oc3ccc(C[C@H](N)C(=O)NCCc4ccncc4)cc3F)c12` [Example 128, (S)-2-amino-3-(3-fluoro-4-((5-methyl-7H-pyrrolo[2,3-d]pyrimidin-4-yl)oxy)phenyl)-N-(2-(pyridin-4-yl)ethyl)propanamide], the Ki (Rho kinase 2 (ROCK-II)) was less than 3 nM and the Ki (Rho kinase 1 (ROCK-I)) was less than 3 nM.
`Cc1c[nH]c2nccc(Oc3ccc(C[C@H](N)C(=O)N4CCC(c5ccncc5)CC4)cc3F)c12` [Example 12, (S)-2-amino-3-(3-fluoro-4-((3-methyl-1H-pyrrolo[2,3-b]pyridin-4-yl)oxy)phenyl)-1-(4-(pyridin-4-yl)piperidin-1-yl)propan-1-one] showed a Ki (Rho kinase 2 (ROCK-II)) of less than 3 nM and a Ki (Rho kinase 1 (ROCK-I)) of less than 3 nM.
`N[C@H](Cc1ccc(Oc2ccnc3[nH]ccc23)cc1)C(=O)NC1CCCCC1` [Example 112, (R)-3-(4-((1H-pyrrolo[2,3-b]pyridin-4-yl)oxy)phenyl)-2-amino-N-cyclohexylpropanamide] gave a Ki (Rho kinase 2 (ROCK-II)) of 3 to 30 nM and a Ki (Rho kinase 1 (ROCK-I)) greater than 30 nM.
In the case of `Cc1c[nH]c2nccc(Oc3ccc(C[C@H](N)C(=O)N4CC=C(c5ccccc5)CC4)cc3F)c12` [Example 21, (S)-2-amino-3-(3-fluoro-4-((3-methyl-1H-pyrrolo[2,3-b]pyridin-4-yl)oxy)phenyl)-1-(4-phenyl-5,6-dihydropyridin-1(2H)-yl)propan-1-one], the Ki (Rho kinase 2 (ROCK-II)) is reported as less than 3 nM and the Ki (Rho kinase 1 (ROCK-I)) is reported as less than 3 nM.
`Cc1c[nH]c2nccc(Oc3ccc(C[C@H](N)C(=O)NCC4CCCCC4)cc3)c12` [Example 139, (S)-2-amino-N-(cyclohexylmethyl)-3-(4-((3-methyl-1H-pyrrolo[2,3-b]pyridin-4-yl)oxy)phenyl)propanamide] was tested, and the Ki (Rho kinase 2 (ROCK-II)) was less than 3 nM and the Ki (Rho kinase 1 (ROCK-I)) was less than 3 nM.
With `Cc1noc(C2CCN(C(=O)[C@@H](N)Cc3ccc(Oc4ccnc5[nH]cc(C)c45)c(F)c3)C2)n1` (stereo partly drawn) [Example 8, (2S)-2-amino-3-(3-fluoro-4-((3-methyl-1H-pyrrolo[2,3-b]pyridin-4-yl)oxy)phenyl)-1-(3-(3-methyl-1,2,4-oxadiazol-5-yl)pyrrolidin-1-yl)propan-1-one] the Ki (Rho kinase 2 (ROCK-II)) was less than 3 nM and the Ki (Rho kinase 1 (ROCK-I)) was less than 3 nM.
`Cc1c[nH]c2nccc(Oc3ccc(CC(N)C(=O)NCc4cccs4)cc3F)c12` (centres unmarked) [Example 61, 2-amino-3-(3-fluoro-4-((3-methyl-1H-pyrrolo[2,3-b]pyridin-4-yl)oxy)phenyl)-N-(thiophen-2-ylmethyl)propanamide] showed a Ki (Rho kinase 2 (ROCK-II)) of less than 3 nM and a Ki (Rho kinase 1 (ROCK-I)) of less than 3 nM.
In the case of `Cc1noc(C2CCN(C(=O)[C@@H](N)Cc3ccc(Oc4ccnc5[nH]cc(C)c45)c(F)c3)C2)n1` (single isomer, unassigned) [Example 8A], the Ki (Rho kinase 2 (ROCK-II)) is reported as less than 3 nM and the Ki (Rho kinase 1 (ROCK-I)) is reported as less than 3 nM.
For `Cc1c[nH]c2nccc(Oc3ccc(CC(N)C(=O)NCCc4ccccc4)cc3F)c12` (centres unmarked) [Example 76, 2-amino-3-(3-fluoro-4-((3-methyl-1H-pyrrolo[2,3-b]pyridin-4-yl)oxy)phenyl)-N-phenethylpropanamide], the Ki (Rho kinase 2 (ROCK-II)) was less than 3 nM and the Ki (Rho kinase 1 (ROCK-I)) was less than 3 nM.
`N#Cc1c[nH]c2nccc(Oc3ccc(C[C@H](N)C(=O)NC4CCOCC4)cc3)c12` [Example 218, (S)-2-amino-3-(4-((3-cyano-1H-pyrrolo[2,3-b]pyridin-4-yl)oxy)phenyl)-N-(tetrahydro-2H-pyran-4-yl)propanamide] gave a Ki (Rho kinase 2 (ROCK-II)) of less than 3 nM and a Ki (Rho kinase 1 (ROCK-I)) of less than 3 nM.
Compound `N#Cc1c[nH]c2ncnc(Oc3ccc(C[C@H](N)C(=O)N4CCN(Cc5ccccc5)CC4)cc3F)c12` [Example 130, (S)-4-(4-(2-amino-3-(4-benzylpiperazin-1-yl)-3-oxopropyl)-2-fluorophenoxy)-7H-pyrrolo[2,3-d]pyrimidine-5-carbonitrile] has a Ki (Rho kinase 2 (ROCK-II)) of less than 3 nM and a Ki (Rho kinase 1 (ROCK-I)) of less than 3 nM.
